Reference: patent US20130253202A1, “METHOD OF TREATING HEMATOLOGICAL CANCERS” (Niiki Pharma Inc., priority 2010, published 2013)

How the values were obtained:
MV4-11 cells [1] = test: Anti-proliferation assay (Cell Titer-Glo) in MV4-11 human leukemia cells; format: cell-based
Description: The human leukemia cell line MV4-11 cells [biphenotypic B myelomonocytic leukemia, lymphoblast morphology] were placed in a 96-well microculture plate (Costar white, flat bottom #3917) in a total volume of 90 μL/well. After 24 hours of incubation in a humidified incubator at 37° C. with 5% CO2 and 95% air, 10 μL of 10X, serially diluted sodium trans-[tetrachlorobis(1H-indazole)ruthenate(III)] in growth medium was added to each well. After 96 total hours of culture in a CO2 incubator, the plated cells and Cell Titer-Glo (Promega #G7571) reagents were brought to room temperature to equilibrate for 30 minutes. 100 μL of Cell Titer-Glo® reagent was added to each well. The plate was shaken for 2 minutes and then left to equilibrate for 10 minutes before reading luminescence on the Tecan GENios microplate reader. Percent inhibition of cell growth was calculated relative to untreated control wells. All tests were performed in duplicate at each concentration level. The IC50 value for the test agent was estimated using Prism 3.03 by curve-fitting the data using the following four parameter-logistic equation: […]

Granta 519 cells = test: Anti-proliferation assay (Cell Titer-Glo) in Granta 519 mantle cell lymphoma cells; format: cell-based, human; settings: 96 total hours of culture, read-out: IC50 in Granta 519 (inhibition of cell growth)
Description: (§1) To determine the antiproliferative activity of sodium trans-[tetrachlorobis(1H-indazole)ruthenate(III)] in human lymphoma tumor cell lines, anti-proliferation assays were conducted in the DoHH2 (follicular lymphoma), Granta 519 (mantle cell lymphoma), and WSU-DLCL2 (diffuse large B cell lymphoma) cell lines. The DoHH2 Human EBV-negative B Cell Lymphoma cells were seeded with 5,000 cells/well and grown in RPMI1640 medium containing 20% FBS, and 2mM L-Glutamine. The Granta 519 Human Mantle Cell Lymphoma cells were seeded with 10,000 cells/well and grown in DMEM medium containing 10% FBS, and 2 mM L-Glutamine. The WSU-DLCL2 Human B Cell Lymphoma cells were seeded with 5,000 cells/well and grown in RPMI1640 medium containing 10% FBS, and 2mM L-Glutamine. Specifically, the human tumor cells were placed in a 96-well microculture plate at the appropriate density for 96 hours of total growth time. After 24 hours of incubation in a humidified incubator at 37° C. with 5% CO2 and 95% air, serially diluted test agents in growth medium were added to each well. After 96 total hours of culture in a CO2 incubator, the plates were processed with Cell Titer-Glo (Promega #G7571) according to manufacturer's instructions. Luminescence was detected using a Tecan GENios microplate reader. Percent inhibition of cell growth was calculated relative to untreated control wells. […]

DoHH2 cells = test: Anti-proliferation assay (Cell Titer-Glo) in DoHH2 follicular lymphoma cells; format: cell-based, human; settings: 96 total hours of culture, read-out: IC50 in DoHH2 (inhibition of cell growth)
Description: as §1

WSU-DLCL2 cells [2] = test: Anti-proliferation assay (Cell Titer-Glo) in WSU-DLCL2 diffuse large B cell lymphoma cells; format: cell-based, human; settings: 96 total hours of culture, read-out: IC50 in WSU-DLCL2 (inhibition of cell growth)
Description: as §1

WSU-DLCL2 cells [3] = settings: Aref et al. 1999, Levi et al. 2010; cited from earlier work
MV4-11 cells [4] = settings: Colado et al. 2008, Scatena et al. 2010; cited from earlier work

[Cl][Ru-]([Cl])([Cl])[Cl].[Na+].c1ccc2[nH]ncc2c1.c1ccc2[nH]ncc2c1 [sodium trans-[tetrachlorobis(1H-indazole)ruthenate(III)]]
IC50 (MV4-11 cells [1]; 96 total hours of culture, compound added after 24 hours, Cell Titer-Glo, read-out: IC50 on MV4-11 (inhibition of cell growth)): 8.53 µM | inhibition of proliferation of MV4-11 cells (FIG. 1), dose-dependent maximum (MV4-11 cells [1]; exposure time 24 hours, % of control): up to 100% | IC50 (Granta 519 cells): 63.6 µM | IC50 (DoHH2 cells): 7.18 µM | IC50 (WSU-DLCL2 cells [2]): 25 µM

N[C@@H](Cc1ccc(N(CCCl)CCCl)cc1)C(=O)O [melphalan]
resistance of WSU-DLCL2 cells to the drug (WSU-DLCL2 cells [3]): resistant

COc1cccc2c1C(=O)c1c(O)c3c(c(O)c1C2=O)C[C@@](O)(C(=O)CO)C[C@@H]3O[C@H]1C[C@H](N)[C@H](O)[C@H](C)O1 [doxorubicin]
resistance of MV4-11 cells to the drug (MV4-11 cells [4]): resistant | resistance of WSU-DLCL2 cells to the drug (WSU-DLCL2 cells [3]): resistant

Nc1ccn([C@@H]2O[C@H](CO)[C@@H](O)[C@@H]2O)c(=O)n1 [Ara-C, cytarabine]
resistance of MV4-11 cells to the drug (MV4-11 cells [4]): resistant
